The values below come from patent US10072023B2, “Diarylethene compounds and uses thereof” (SWITCH MATERIALS, INC., priority 2011, dated 2018).

Bounds are passed on as bounds.

The nature of data set [1]: Absorbance at photostationary state (PSS) under simulated sunlight or 365 nm light. The conditions noted are these: for Absorbance at PSS, 365 nm: 365 nm light source; for Absorbance at PSS, 365 nm / Absorbance at PSS, full / Absorbance at PSS, +UV / λ max: 2.0×10^−5 M in triglyme; for sensitivity index: ratio of PSS under 365 nm light to PSS under full spectrum light (without UV blocking film); for Absorbance at PSS, full: simulated sunlight (QSUN solar simulator), no UV blocking film; for Absorbance at PSS, +UV: simulated sunlight with UV blocking film (cutoff 370 nm); for λ max: wavelength of maximum absorbance in the visible range, ring-closed isoform. Type of data set: physicochemical. More on the design: λ max: unit not given here. In short, it runs like this: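 Compounds at 2.0×10^−5 M in triglyme, photofaded with visible light, then irradiated with simulated sunlight (xenon arc) or 365 nm light until the UV/Vis spectrum stabilized. Also irradiated through a UV-blocking film (370 nm cutoff); sensitivity index is PSS under 365 nm divided by PSS under full spectrum.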

A short description of data set [2]: Solubility in indicated solvent. Format: physicochemical. The conditions noted are these: % wt soluble in triglyme. An excerpt: A compound with greater solubility allows for a formulation or material with a greater concentration of coloured molecule to be incorporated into a composition. This may allow for increasing the contrast ratio for a compound with a lesser absorbance at PSS. Inclusion of a solubilizing group in a compound according to various embodiments of the invention may increase solubility. Examples of solubilizing groups may include alkoxy or siloxy groups.

As to `CC(C)(C)c1ccc(-c2sc(-c3ccc(C4(C)OCCO4)cc3)cc2C2=C(c3cc(-c4ccc(C5(C)OCCO5)cc4)sc3-c3ccc(C(C)(C)C)cc3)C(F)(F)C(F)(F)C2(F)F)cc1` [S066, 2,2′-((4,4′-(perfluorocyclopent-1-ene-1,2-diyl)bis(5-(4-(tert-butyl)phenyl)thiophene-4,2-diyl))bis(4,1-phenylene))bis(2-methyl-1,3-dioxolane)], in data set [1], the “Absorbance at PSS, 365 nm” value is reported as 0.226; the sensitivity index is 2.28; the “Absorbance at PSS, full” value is given as 0.099; the “Absorbance at PSS, +UV” value was 0.049. In data set [1], this compound returned a λ max of 615. In addition, the Solubility in data set [2] amounted to 2.5 % wt.
In the case of `COc1ccc(-c2cc(C3=C(c4cc(-c5ccc(OC)cc5)sc4-c4ccc(OC)cc4)C(F)(F)C(F)(F)C3(F)F)c(-c3ccc(OC)cc3)s2)cc1` [S054, 3,3′-(perfluorocyclopent-1-ene-1,2-diyl)bis(2,5-bis(4-methoxyphenyl)thiophene)], in data set [1], the “Absorbance at PSS, 365 nm” value is recorded as 0.268; the sensitivity index was 2.53; the “Absorbance at PSS, full” value was 0.106; the “Absorbance at PSS, +UV” value is recorded as 0.056. In data set [1], this compound came in with a λ max of 630. Besides, the Solubility in data set [2] is reported as 5-6 % wt.
For `Cc1cc(-c2sc(C)c(C)c2C2=C(c3c(-c4cc(C)c(C)s4)sc(C)c3C)C(F)(F)C(F)(F)C2(F)F)sc1C` [S039, 3,3′-(perfluorocyclopent-1-ene-1,2-diyl)bis(4,4′,5,5′-tetramethyl-2,2′-bithiophene)], in data set [1], the “Absorbance at PSS, 365 nm” value is recorded as 0.372; the sensitivity index was 7.75; the “Absorbance at PSS, full” value is listed as 0.048; the “Absorbance at PSS, +UV” value is 0.028. Further, in data set [1], the λ max was 570. The Solubility in data set [2] was determined as 2 % wt.
Turning to `c1ccc(-c2nc(-c3cc(-c4cccs4)sc3-c3cccs3)c(-c3cc(-c4cccs4)sc3-c3cccs3)s2)cc1` [S075], in data set [1], the “Absorbance at PSS, 365 nm” value was 0.302; the sensitivity index is reported as 3.82; the “Absorbance at PSS, full” value was 0.079; the “Absorbance at PSS, +UV” value is listed as 0.031. Further, in data set [1], the λ max is reported as 670. Besides, in data set [2], the Solubility was 1 % wt.
Consider `FC(F)(F)c1ccc(-c2cc(C3=C(c4cc(-c5ccc(C(F)(F)F)cc5)sc4-c4ccc(C(F)(F)F)cc4)C(F)(F)C(F)(F)C3(F)F)c(-c3ccc(C(F)(F)F)cc3)s2)cc1` [S044, 3,3′-(perfluorocyclopent-1-ene-1,2-diyl)bis(2,5-bis(4-(trifluoromethyl)phenyl)thiophene)], for which, in data set [1], the “Absorbance at PSS, 365 nm” value was 0.222; the sensitivity index is recorded as 3.58; the “Absorbance at PSS, full” value is listed as 0.062; the “Absorbance at PSS, +UV” value is recorded as 0.027. In data set [1], the λ max was 605. Further, the Solubility in data set [2] is reported as 1 % wt.
In the case of `Cc1c(-c2ccccc2)sc(-c2ccccc2)c1C1=C(c2c(-c3ccccc3)sc(-c3ccccc3)c2C)C(F)(F)C(F)(F)C1(F)F` [S017, 4,4′-(perfluorocyclopent-1-ene-1,2-diyl)bis(3-methyl-2,5-diphenylthiophene)], in data set [1], the “Absorbance at PSS, 365 nm” value is given as 0.049; the sensitivity index is recorded as 5.44; the “Absorbance at PSS, full” value is 0.009; the “Absorbance at PSS, +UV” value is on record as 0.0025. The same compound yielded a λ max in data set [1] of 605. In data set [2], this compound came in with a Solubility of 1 % wt.
Consider `CC(C)(C)c1ccc(-c2sc(-c3ccc(Cl)cc3)cc2C2=C(c3cc(-c4ccc(Cl)cc4)sc3-c3ccc(C(C)(C)C)cc3)C(F)(F)C(F)(F)C2(F)F)cc1` [S060], for which, in data set [1], the “Absorbance at PSS, 365 nm” value is recorded as 0.22; the sensitivity index is given as 2.06; the “Absorbance at PSS, full” value is 0.107; the “Absorbance at PSS, +UV” value was 0.038. The compound further displayed a λ max in data set [1] of 615. Also, the Solubility in data set [2] stood at 1 % wt.
With `COc1cccc(-c2cc(C3=C(c4cc(-c5cccc(OC)c5)sc4-c4cccc(OC)c4)C(F)(F)C(F)(F)C3(F)F)c(-c3cccc(OC)c3)s2)c1` [S096, 3,3′-(perfluorocyclopent-1-ene-1,2-diyl)bis(2,5-bis(3-methoxyphenyl)thiophene)], in data set [1], the “Absorbance at PSS, 365 nm” value was 0.183; the sensitivity index is recorded as 4.07; the “Absorbance at PSS, full” value is on record as 0.045; the “Absorbance at PSS, +UV” value is 0.014. In data set [1], this compound came in with a λ max of 609. This compound came in with a Solubility in data set [2] of 15 % wt.
With `COCCC[Si](CCCOC)(CCCOC)c1ccc(-c2sc(-c3ccc(C(C)(C)C)s3)cc2C2=C(c3cc(-c4ccc(C(C)(C)C)s4)sc3-c3ccc([Si](CCCOC)(CCCOC)CCCOC)s3)C(F)(F)C(F)(F)C2(F)F)s1` [S158], in data set [1], the “Absorbance at PSS, 365 nm” value is 0.394; the sensitivity index was 1.15; the “Absorbance at PSS, full” value is 0.342; the “Absorbance at PSS, +UV” value is reported as 0.291. In addition, the λ max in data set [1] is on record as 650. In addition, in data set [2], the Solubility is >20 % wt.
Regarding `CC(C)(C)c1ccc(-c2cc(C3=C(c4cc(-c5ccc(C(C)(C)C)s5)sc4-c4ccc(C(C)(C)C)s4)C(F)(F)C(F)(F)C3(F)F)c(-c3ccc(C(C)(C)C)s3)s2)s1` [S003, 3′,3″″-(perfluorocyclopent-1-ene-1,2-diyl)bis(5,5″-di-tert-butyl-2,2′:5′,2″-terthiophene)], in data set [1], the “Absorbance at PSS, 365 nm” value is recorded as 0.372; the sensitivity index is on record as 1.40; the “Absorbance at PSS, full” value is listed as 0.2655; the “Absorbance at PSS, +UV” value is reported as 0.2055. In addition, in data set [1], the λ max is on record as 650. For the same compound, the Solubility in data set [2] was <3 % wt.
Consider `FC1(F)C(c2cc(-c3ccccc3)sc2-c2ccccc2)=C(c2cc(-c3ccc(Cl)cc3)sc2-c2ccccc2)C(F)(F)C1(F)F` [S006, 5-(4-chlorophenyl)-3-(2-(2,5-diphenylthiophen-3-yl)-3,3,4,4,5,5-hexafluorocyclopent-1-en-1-yl)-2-phenylthiophene], for which, in data set [1], the “Absorbance at PSS, 365 nm” value is 0.141; the sensitivity index is reported as 3.71; the “Absorbance at PSS, full” value is given as 0.038; the “Absorbance at PSS, +UV” value is reported as 0.013. In data set [1], the λ max is given as 610. The Solubility in data set [2] is given as 3 % wt.
Consider `CCOCCOCCOCCOc1ccc(-c2sc(-c3ccc(C(C)(C)C)s3)cc2C2=C(c3cc(-c4ccc(C(C)(C)C)s4)sc3-c3ccc(OCCOCCOCCOCC)cc3)C(F)(F)C(F)(F)C2(F)F)cc1` [S109, 4,4″-(perfluorocyclopent-1-ene-1,2-diyl)bis(5′-(tert-butyl)-5-(4-(2-(2-(2-ethoxyethoxy)ethoxy)ethoxy)phenyl)-2,2′-bithiophene)], for which, in data set [1], the “Absorbance at PSS, 365 nm” value is 0.367; the sensitivity index is 1.24; the “Absorbance at PSS, full” value is on record as 0.296; the “Absorbance at PSS, +UV” value was 0.217. In data set [1], this compound registered a λ max of 645. For the same compound, the Solubility in data set [2] is listed as >25 % wt.
